Source: US11753397B2, “Cereblon binders for the degradation of ikaros” (C4 Therapeutics, Inc., priority 2018, dated 2023)

Test system: NCIH929.1 cells
Experiment: Cell viability assay (CellTiter-Glo 2.0, ATP quantification)
Type: cell-based
Conditions: NCIH929.1 cell viability, CellTiter-Glo 2.0, 96 hr incubation, top concentration 1 μM
Description: Example 59. Cell Viability Assay
RPMI 1640 medium, fetal bovine serum (FBS) and 2-mercaptoethanol were purchased from Gibco (Grand Island, N.Y., USA). CellTiter-Glo® 2.0 Assay was purchased from Promega (Madison, Wis., USA). NCIH929.1 cell line was purchased from ATCC (Manassas, Va., USA). Cell culture flasks and 384-well microplates were acquired from VWR (Radnor, Pa., USA).
NCIH929.1 cell viability was determined based on quantification of ATP using CellTiter-Glo® 2.0 luminescent Assay kit, which signals the presence of metabolically-active cells. Briefly, the test compound was added to 384-well plates at a top concentration of 1 μM with 10 points, half log titration in duplicates. NCIH929.1 cells were seeded into the 384-well plates in RPMI medium containing 10% FBS and 0.05 mM 2-mercaptoethanol at a cell density of 750 cells per well. Cells treated in the absence of the test compound were the negative control and cells treated in the absence of CellTiter-Glo® 2.0 were the positive control. At the same day of compound treatment, CellTiter-Glo® 2.0 was added to a plate with cells treated in the absence of the test compound to establish Cytostatic control value (CT0). Cells treated with the test compound were incubated at 37° C. with 5% CO2 for 96 hr. CellTiter-Glo reagent was then added to the cells and luminescence was acquired on EnVision™ Multilabel Reader (PerkinElmer, Santa Clara, Calif., USA).

| Structure (SMILES) | GI50 [nM] |
| --- | --- |
| CC(C)OCC(=O)N1CCC(n2cc(CNc3cccc4c3C(=O)N(C3CCC(=O)NC3=O)C4=O)cn2)CC1 (stereo not shown) [Compound 41, 2-(2,6-dioxopiperidin-3-yl)-4-(((1-(1-(2-isopropoxyacetyl)piperidin-4-yl)-1H-pyrazol-4-yl)methyl)amino)-isoindoline-1,3-dione] | < 100 |
| CC1(C(=O)N2CCC(n3cc(CNc4cccc5c4C(=O)N(C4CCC(=O)NC4=O)C5=O)cn3)CC2)CC1(Cl)Cl (stereo not shown) [Compound 87, 4-(((1-(1-(2,2-dichloro-1-methylcyclopropane-1-carbonyl)piperidin-4-yl)-1H-pyrazol-4-yl)methyl)amino)-2-(2,6-dioxopiperidin-3-yl)isoindoline-1,3-dione] | < 1 |
| C#Cc1c(CNc2cccc3c2C(=O)N(C2CCC(=O)NC2=O)C3=O)cnn1C1CCN(C(=O)C2(C)CCC2)CC1 (stereo not shown) [Compound 192, 2-(2,6-Dioxopiperidin-3-yl)-4-(((5-ethynyl-1-(1-(1-methylcyclobutane-1-carbonyl)piperidin-4-yl)-1H-pyrazol-4-yl)methyl)amino)isoindoline-1,3-dione] | < 100 |
| O=C1CCC(N2C(=O)c3cccc(NCc4cnn(C5CCN(C(=O)CN6CCOCC6)CC5)c4)c3C2=O)C(=O)N1 (stereo not shown) [Compound 43, 2-(2,6-dioxopiperidin-3-yl)-4-(((1-(1-(2-morpholinoacetyl)piperidin-4-yl)-1H-pyrazol-4-yl)methyl)amino)isoindoline-1,3-dione] | < 100 |
| Cc1cncc(N2CCC(C(=O)N3CCC(n4cc(CNc5cccc6c5C(=O)N(C5CCC(=O)NC5=O)C6=O)cn4)CC3)CC2)n1 (stereo not shown) [Compound 122, 2-(2,6-dioxopiperidin-3-yl)-4-(((1-(1-(1-(6-methylpyrazin-2-yl)piperidine-4-carbonyl)piperidin-4-yl)-1H-pyrazol-4-yl)methyl)amino)isoindoline-1,3-dione] | < 1 |
| CCCC(=O)N1CCC(n2cc(CNc3cccc4c3C(=O)N(C3CCC(=O)NC3=O)C4=O)cn2)CC1 (stereo not shown) [Compound 35, 4-(((1-(1-butyrylpiperidin-4-yl)-1H-pyrazol-4-yl)methyl)amino)-2-(2,6-dioxopiperidin-3-yl)isoindoline-1,3-dione] | < 100 |
| O=C1CCC(N2C(=O)c3cccc(NCc4cnn(C5CCN(C(=O)C6CCN(c7ccccn7)CC6)CC5)c4)c3C2=O)C(=O)N1 (stereo not shown) [Compound 100, 2-(2,6-dioxopiperidin-3-yl)-4-(((1-(1-(1-(pyridin-2-yl)piperidine-4-carbonyl)piperidin-4-yl)-1H-pyrazol-4-yl)methyl)amino)isoindoline-1,3-dione] | < 1 |
| CC(C)(C)CCC(=O)N1CCC(n2cc(CNc3cccc4c3C(=O)N(C3CCC(=O)NC3=O)C4=O)cn2)CC1 (stereo not shown) [Compound 8, 4-(((1-(1-(4,4-dimethylpentanoyl)piperidin-4-yl)-1H-pyrazol-4-yl)methyl)amino)-2-(2,6-dioxopiperidin-3-yl)isoindoline-1,3-dione] | < 1 |
| O=C1CCC(N2C(=O)c3cccc(NCc4cnn(C5CCN(CC6CCC6)CC5)c4)c3C2=O)C(=O)N1 (stereo not shown) [Compound 131, 4-(((1-(1-(cyclobutylmethyl)piperidin-4-yl)-1H-pyrazol-4-yl)methyl)amino)-2-(2,6-dioxopiperidin-3-yl)isoindoline-1,3-dione] | < 100 |
| C[C@H](O)C(=O)N1CCC(n2cc(CNc3cccc4c3C(=O)N(C3CCC(=O)NC3=O)C4=O)cn2)CC1 (stereo partly drawn) [Compound 53, 2-(2,6-dioxopiperidin-3-yl)-4-(((1-(1-((S)-2-hydroxypropanoyl)piperidin-4-yl)-1H-pyrazol-4-yl)methyl)amino)isoindoline-1,3-dione] | < 100 |
| O=C1CCC(N2C(=O)c3cccc(NCc4cnn(C5CCN(C(=O)CC6CCC(c7ccccc7)CC6)CC5)c4)c3C2=O)C(=O)N1 (stereo not shown) [Compound 117, 2-(2,6-dioxopiperidin-3-yl)-4-(((1-(1-(2-(4-phenylcyclohexyl)acetyl)piperidin-4-yl)-1H-pyrazol-4-yl)methyl)amino)isoindoline-1,3-dione] | < 100 |
| O=C1CCC(N2C(=O)c3cccc(NCc4cnn(C5CCN(C(=O)[C@@H]6CCCO6)CC5)c4)c3C2=O)C(=O)N1 (stereo partly drawn) [Compound 59, 2-(2,6-dioxopiperidin-3-yl)-4-(((1-(1-((S)-tetrahydrofuran-2-carbonyl)piperidin-4-yl)-1H-pyrazol-4-yl)methyl)amino)isoindoline-1,3-dione] | < 100 |
| O=C1CCC(N2C(=O)c3cccc(NCc4cnn(C5CCN(C6CCC6)CC5)c4)c3C2=O)C(=O)N1 (stereo not shown) [Compound 129, 4-(((1-(1-cyclobutylpiperidin-4-yl)-1H-pyrazol-4-yl)methyl)amino)-2-(2,6-dioxopiperidine-3-yl)isoindoline-1,3-dione] | < 100 |
| O=C1CCC(N2C(=O)c3cccc(NCc4cnn(C5CCN(C(=O)C6(c7ccc(F)cc7)CCCCC6)CC5)c4)c3C2=O)C(=O)N1 (stereo not shown) [Compound 68, 2-(2,6-dioxopiperidin-3-yl)-4-(((1-(1-(1-(4-fluorophenyl)cyclohexane-1-carbonyl)piperidin-4-yl)-1H-pyrazol-4-yl)methyl)amino)isoindoline-1,3-dione] | < 100 |
| CC(C)(C)OC(=O)N1CCC(F)(C(=O)N2CCC(n3cc(CNc4cccc5c4C(=O)N(C4CCC(=O)NC4=O)C5=O)cn3)CC2)CC1 (stereo not shown) [Compound 102, tert-butyl 4-(4-(4-(((2-(2,6-dioxopiperidin-3-yl)-1,3-dioxoisoindolin-4-yl)amino)methyl)-1H-pyrazol-1-yl)piperidine-1-carbonyl)-4-fluoropiperidine-1-carboxylate] | < 100 |
| O=C1CCC(N2C(=O)c3cccc(NCc4cnn(C5CCN(C(=O)CC67CC8CC(CC(C8)C6)C7)CC5)c4)c3C2=O)C(=O)N1 (stereo not shown) [Compound 47, 4-(((1-(1-(2-(adamantan-1-yl)acetyl)piperidin-4-yl)-1H-pyrazol-4-yl)methyl)amino)-2-(2,6-dioxopiperidin-3-yl)isoindoline-1,3-dione] | < 1 |
| O=C1CCC(N2C(=O)c3cccc(NCc4cnn(C5CCN(C(=O)CC6CCCCC6)CC5)c4)c3C2=O)C(=O)N1 (stereo not shown) [Compound 27, 4-(((1-(1-(2-cyclohexylacetyl)piperidin-4-yl)-1H-pyrazol-4-yl)methyl)amino)-2-(2,6-dioxopiperidin-3-yl)isoindoline-1,3-dione] | < 1 |
| O=C1CCC(N2C(=O)c3cccc(NCc4cnn(C5CCN(C(=O)CC6CCCC6)CC5)c4)c3C2=O)C(=O)N1 (stereo not shown) [Compound 20, 4-(((1-(1-(2-cyclopentylacetyl)piperidin-4-yl)-1H-pyrazol-4-yl)methyl)amino)-2-(2,6-dioxopiperidin-3-yl)isoindoline-1,3-dione] | < 100 |
| O=C1CCC(N2C(=O)c3cccc(NCc4cnn(C5CCN(CC(F)(F)F)CC5)c4)c3C2=O)C(=O)N1 (stereo not shown) [Compound 160, 2-(2,6-Dioxo-piperidin-3-yl)-4-({1-[1-(2,2,2-trifluoro-ethyl)-piperidin-4-yl]-1H-pyrazol-4-ylmethyl}-amino)-isoindole-1,3-dione] | < 100 |
| CC(C)(C(=O)N1CCC(n2cc(CNc3cccc4c3C(=O)N(C3CCC(=O)NC3=O)C4=O)cn2)CC1)C(F)(F)F (stereo not shown) [Compound 73, 2-(2,6-dioxopiperidin-3-yl)-4-(((1-(1-(3,3,3-trifluoro-2,2-dimethylpropanoyl)piperidin-4-yl)-1H-pyrazol-4-yl)methyl)amino)isoindoline-1,3-dione] | < 100 |
| O=C1CCC(N2C(=O)c3cccc(NCc4cnn(C5CCN(C(=O)CC6CCN(C(=O)C7CCC7)CC6)CC5)c4)c3C2=O)C(=O)N1 (stereo not shown) [Compound 126, 4-(((1-(1-(2-(1-(cyclobutanecarbonyl)piperidin-4-yl)acetyl)piperidin-4-yl)-1H-pyrazol-4-yl)methyl)amino)-2-(2,6-dioxopiperidin-3-yl)isoindoline-1,3-dione] | < 100 |
| O=C1CCC(N2C(=O)c3cccc(NCc4cnn(C5CCN(C(=O)C67CC(CO6)C7)CC5)c4)c3C2=O)C(=O)N1 (stereo not shown) [Compound 91, 4-(((1-(1-(2-oxabicyclo[2.1.1]hexane-1-carbonyl)piperidin-4-yl)-1H-pyrazol-4-yl)methyl)amino)-2-(2,6-dioxopiperidin-3-yl)isoindoline-1,3-dione] | < 100 |
| O=C1CCC(N2C(=O)c3cccc(NCc4cnn(C5CCN(C(=O)C6CC(F)(F)C6)CC5)c4)c3C2=O)C(=O)N1 (stereo not shown) [Compound 29, 4-(((1-(1-(3,3-difluorocyclobutane-1-carbonyl)piperidin-4-yl)-1H-pyrazol-4-yl)methyl)amino)-2-(2,6-dioxopiperidin-3-yl)isoindoline-1,3-dione] | < 100 |
| CC(C)(O)CC(=O)N1CCC(n2cc(CNc3cccc4c3C(=O)N(C3CCC(=O)NC3=O)C4=O)cn2)CC1 (stereo not shown) [Compound 46, 2-(2,6-dioxopiperidin-3-yl)-4-(((1-(1-(3-hydroxy-3-methylbutanoyl)piperidin-4-yl)-1H-pyrazol-4-yl)methyl)amino)isoindoline-1,3-dione] | < 100 |
| O=C1CCC(N2C(=O)c3cccc(NCc4cnn(C5CCN(C(=O)C6(C(F)(F)F)CCC6)CC5)c4)c3C2=O)C(=O)N1 (stereo not shown) [Compound 75, 2-(2,6-dioxopiperidin-3-yl)-4-(((1-(1-(1-(trifluoromethyl)cyclobutane-1-carbonyl)piperidin-4-yl)-1H-pyrazol-4-yl)methyl)amino)isoindoline-1,3-dione] | < 1 |
